Assay results as given in BindingDB's records for patent US12570614 (Glaxosmith Kline, 2026).

Target: Tyrosine-protein kinase JAK2 (Homo sapiens, UniProt O60674)
Assay: Enzyme Screening Assay
Method: Alphascreen phosphotyrosine acceptor beads followed by streptavidin donor beads at a concentration of 1/100 in stop buffer were added to each well under subdued light and incubated for 2-3 hours. The Alphascreen plates were read on a Packard Fusion Alpha instrument

Chain of Tyrosine-protein kinase JAK2 (O60674 whole entry): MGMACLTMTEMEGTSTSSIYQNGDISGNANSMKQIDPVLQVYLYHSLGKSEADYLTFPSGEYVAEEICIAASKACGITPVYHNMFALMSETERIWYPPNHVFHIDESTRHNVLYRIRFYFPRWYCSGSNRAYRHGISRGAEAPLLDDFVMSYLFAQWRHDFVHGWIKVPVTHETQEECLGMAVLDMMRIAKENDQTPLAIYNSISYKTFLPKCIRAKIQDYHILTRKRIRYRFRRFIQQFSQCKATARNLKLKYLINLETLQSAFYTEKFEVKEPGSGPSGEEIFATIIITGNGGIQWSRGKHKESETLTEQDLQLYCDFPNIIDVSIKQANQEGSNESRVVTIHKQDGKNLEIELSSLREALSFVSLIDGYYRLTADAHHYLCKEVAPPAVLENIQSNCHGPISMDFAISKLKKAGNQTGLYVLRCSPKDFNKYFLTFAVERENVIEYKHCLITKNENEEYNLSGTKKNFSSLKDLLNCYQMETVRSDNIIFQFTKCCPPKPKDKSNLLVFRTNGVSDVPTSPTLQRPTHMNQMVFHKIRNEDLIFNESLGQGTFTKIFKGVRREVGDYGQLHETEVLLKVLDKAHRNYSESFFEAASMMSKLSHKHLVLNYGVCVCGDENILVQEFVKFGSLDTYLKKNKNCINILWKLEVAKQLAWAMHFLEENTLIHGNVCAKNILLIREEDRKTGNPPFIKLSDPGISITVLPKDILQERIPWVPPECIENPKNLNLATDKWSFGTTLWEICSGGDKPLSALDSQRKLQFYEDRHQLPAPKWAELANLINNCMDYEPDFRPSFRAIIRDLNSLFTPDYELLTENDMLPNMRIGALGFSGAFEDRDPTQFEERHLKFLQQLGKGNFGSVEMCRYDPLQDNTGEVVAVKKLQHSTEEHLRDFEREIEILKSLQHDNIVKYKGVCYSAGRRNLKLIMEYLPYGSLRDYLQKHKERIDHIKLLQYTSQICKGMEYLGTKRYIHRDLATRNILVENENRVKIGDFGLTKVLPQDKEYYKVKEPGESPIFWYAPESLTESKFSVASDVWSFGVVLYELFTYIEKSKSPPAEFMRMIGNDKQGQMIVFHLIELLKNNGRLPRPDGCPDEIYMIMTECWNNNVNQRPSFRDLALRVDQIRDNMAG

SMILES: CCN1CCC(OC2CCC(Nc3nccc(-c4ccc(C(=O)NCC#N)cc4)n3)CC2)CC1 (stereo unspecified) [US12570614, Compound 80]
- IC50: < 1000 nM
